Laboratory results published in PubChem BioAssay AID588373 (NMMLSC, 2011).

Each compound was assayed against Cell division control protein 42 homolog (Homo sapiens) (UniProt P60953) (assay: inhibition of fluorescent GTP binding to mutant Cdc42 – biochemical, probe extension, bead-based multiplex flow cytometry, round 1, SAR follow-up (AID 588373)). Details: Bodipy-FL-GTP binding, EDTA.
Chain of Cell division control protein 42 homolog (Homo sapiens) (P60953 whole entry, looked up): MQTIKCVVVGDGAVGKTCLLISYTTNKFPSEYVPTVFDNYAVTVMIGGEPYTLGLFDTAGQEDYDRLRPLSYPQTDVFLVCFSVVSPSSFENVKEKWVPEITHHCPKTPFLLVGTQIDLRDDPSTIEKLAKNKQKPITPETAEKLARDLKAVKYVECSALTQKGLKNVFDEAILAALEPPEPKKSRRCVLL
For `COc1ccc(C2CC(c3ccccc3)=NN2c2ccc(S(N)(=O)=O)cc2)cc1` (stereo not drawn), the EC50 was 1890 nM. `O=C(C#Cc1ccccc1)c1cccc([N+](=O)[O-])c1` gave an EC50 of 368 nM. With `NS(=O)(=O)c1ccc(N2N=C(c3ccccc3)CC2c2ccccc2)cc1` (stereo not drawn) the EC50 was 6140 nM.
